# Data from ChEMBL document CHEMBL4837183, “Antiproliferative Bufadienolides from the Bulbs of Drimia altissima” (2021).
# Columns and labels:
# Format in all cases: functional
# KM12 = assay: Growth inhibition of human KM12 cells measured after 48 hrs by SRB assay
# OVCAR-5 = assay: Growth inhibition of human OVCAR-5 cells measured after 48 hrs by SRB assay
# MCF7 = assay: Growth inhibition of human MCF7 cells measured after 48 hrs by SRB assay
# UACC-257 = assay: Growth inhibition of human UACC-257 cells measured after 48 hrs by SRB assay
# SF-539 = assay: Growth inhibition of human SF-539 cells measured after 48 hrs by SRB assay
# M14 = assay: Growth inhibition of human M14 cells measured after 48 hrs by SRB assay
# NCI/ADR-RES = assay: Growth inhibition of human NCI/ADR-RES cells measured after 48 hrs by SRB assay
# NCI-H322M = assay: Growth inhibition of human NCI-H322M cells measured after 48 hrs by SRB assay
# DU-145 = assay: Growth inhibition of human DU-145 cells measured after 48 hrs by SRB assay
# NCI-H23 = assay: Growth inhibition of human NCI-H23 cells measured after 48 hrs by SRB assay
# IGROV-1 = assay: Growth inhibition of human IGROV-1 cells measured after 48 hrs by SRB assay
# Hs-578T = assay: Growth inhibition of human Hs-578T cells measured after 48 hrs by SRB assay
# RXF 393 = assay: Growth inhibition of human RXF 393 cells measured after 48 hrs by SRB assay
# HL-60 = assay: Growth inhibition of human HL-60 cells measured after 48 hrs by SRB assay
# K562 = assay: Growth inhibition of human K562 cells measured after 48 hrs by SRB assay
# NCI-H522 = assay: Growth inhibition of human NCI-H522 cells measured after 48 hrs by SRB assay
# OVCAR-3 = assay: Growth inhibition of human OVCAR-3 cells measured after 48 hrs by SRB assay
# SF-268 = assay: Growth inhibition of human SF-268 cells measured after 48 hrs by SRB assay
# NCI-H460 = assay: Growth inhibition of human NCI-H460 cells measured after 48 hrs by SRB assay
# SK-MEL-2 = assay: Growth inhibition of human SK-MEL-2 cells measured after 48 hrs by SRB assay
# BT-549 = assay: Growth inhibition of human BT-549 cells measured after 48 hrs by SRB assay
# SN12C = assay: Growth inhibition of human SN12C cells measured after 48 hrs by SRB assay
# SF-295 = assay: Growth inhibition of human SF-295 cells measured after 48 hrs by SRB assay
# U-251 = assay: Growth inhibition of human U-251 cells measured after 48 hrs by SRB assay
# HT-29 = assay: Growth inhibition of human HT-29 cells measured after 48 hrs by SRB assay
# MDA-MB-435 = assay: Growth inhibition of human MDA-MB-435 cells measured after 48 hrs by SRB assay
# SK-MEL-5 = assay: Growth inhibition of human SK-MEL-5 cells measured after 48 hrs by SRB assay
# SNB-19 = assay: Growth inhibition of human SNB-19 cells measured after 48 hrs by SRB assay
# HCC 2998 = assay: Growth inhibition of human HCC 2998 cells measured after 48 hrs by SRB assay
# MOLT-4 = assay: Growth inhibition of human MOLT-4 cells measured after 48 hrs by SRB assay
# UACC-62 = assay: Growth inhibition of human UACC-62 cells measured after 48 hrs by SRB assay
# CAKI-1 = assay: Growth inhibition of human CAKI-1 cells measured after 48 hrs by SRB assay
# 786-0 = assay: Growth inhibition of human 786-0 cells measured after 48 hrs by SRB assay
# SK-OV-3 = assay: Growth inhibition of human SK-OV-3 cells measured after 48 hrs by SRB assay
# A549 = assay: Growth inhibition of human A549 cells measured after 48 hrs by SRB assay
# PC-3 = assay: Growth inhibition of human PC-3 cells measured after 48 hrs by SRB assay
# HCT-116 = assay: Growth inhibition of human HCT-116 cells measured after 48 hrs by SRB assay
# HOP-62 = assay: Growth inhibition of human HOP-62 cells measured after 48 hrs by SRB assay
# NCI-H226 = assay: Growth inhibition of human NCI-H226 cells measured after 48 hrs by SRB assay
# Malme-3M = assay: Growth inhibition of human Malme-3M cells measured after 48 hrs by SRB assay
# COLO 205 = assay: Growth inhibition of human COLO 205 cells measured after 48 hrs by SRB assay
# MDA-MB-231 = assay: Growth inhibition of human MDA-MB-231 cells measured after 48 hrs by SRB assay
# LOX IMVI = assay: Growth inhibition of human LOX IMVI cells measured after 48 hrs by SRB assay
# CCRF-CEM = assay: Growth inhibition of human CCRF-CEM cells measured after 48 hrs by SRB assay
# HOP-92 = assay: Growth inhibition of human HOP-92 cells measured after 48 hrs by SRB assay
# SR = assay: Growth inhibition of human SR cells measured after 48 hrs by SRB assay
# ACHN = assay: Growth inhibition of human ACHN cells measured after 48 hrs by SRB assay
# OVCAR-8 = assay: Growth inhibition of human OVCAR-8 cells measured after 48 hrs by SRB assay
# T47D = assay: Growth inhibition of human T47D cells measured after 48 hrs by SRB assay
# UO-31 = assay: Growth inhibition of human UO-31 cells measured after 48 hrs by SRB assay
# SW-620 = assay: Growth inhibition of human SW-620 cells measured after 48 hrs by SRB assay
# MDA-MB-468 = assay: Growth inhibition of human MDA-MB-468 cells measured after 48 hrs by SRB assay
# A498 = assay: Growth inhibition of human A498 cells measured after 48 hrs by SRB assay
# TK-10 = assay: Growth inhibition of human TK-10 cells measured after 48 hrs by SRB assay
# SNB-75 = assay: Growth inhibition of human SNB-75 cells measured after 48 hrs by SRB assay
# SK-MEL-28 = assay: Growth inhibition of human SK-MEL-28 cells measured after 48 hrs by SRB assay
# HCT-15 = assay: Growth inhibition of human HCT-15 cells measured after 48 hrs by SRB assay
# RPMI-8226 = assay: Growth inhibition of human RPMI-8226 cells measured after 48 hrs by SRB assay
structure (smiles),measurement,setting,value
C[C@]12C[C@H](O)[C@H]3[C@@H](CCC4=C[C@@H](O[C@@H]5O[C@H](CO)[C@@H](O)[C@H](O)[C@H]5O)CC[C@@]43CO)[C@@]1(O)CC[C@@H]2c1ccc(=O)oc1,GI50,KM12,0.029 µM
same,GI50,OVCAR-5,0.017 µM
same,GI50,MCF7,0.009 µM
same,GI50,UACC-257,0.042 µM
same,GI50,SF-539,0.003 µM
same,GI50,M14,0.031 µM
same,GI50,NCI/ADR-RES,0.008 µM
same,GI50,NCI-H322M,0.007 µM
same,GI50,DU-145,0.006 µM
same,GI50,NCI-H23,0.008 µM
same,GI50,IGROV-1,0.016 µM
same,GI50,Hs-578T,0.006 µM
same,GI50,RXF 393,0.005 µM
same,GI50,HL-60,0.007 µM
same,GI50,K562,0.03 µM
same,GI50,NCI-H522,0.006 µM
same,GI50,OVCAR-3,0.008 µM
same,GI50,SF-268,0.007 µM
same,GI50,NCI-H460,0.006 µM
same,GI50,SK-MEL-2,0.045 µM
same,GI50,BT-549,0.004 µM
same,GI50,SN12C,0.006 µM
same,GI50,SF-295,0.011 µM
same,GI50,U-251,0.025 µM
same,GI50,HT-29,0.015 µM
same,GI50,MDA-MB-435,0.033 µM
same,GI50,SK-MEL-5,0.02 µM
same,GI50,SNB-19,0.048 µM
same,GI50,HCC 2998,0.052 µM
same,GI50,MOLT-4,0.007 µM
same,GI50,UACC-62,0.025 µM
same,GI50,CAKI-1,0.008 µM
same,GI50,786-0,0.007 µM
same,GI50,SK-OV-3,0.051 µM
same,GI50,A549,0.004 µM
same,GI50,PC-3,0.013 µM
same,GI50,HCT-116,0.005 µM
same,GI50,HOP-62,0.006 µM
same,GI50,NCI-H226,0.022 µM
same,GI50,Malme-3M,0.017 µM
same,GI50,COLO 205,0.043 µM
same,GI50,MDA-MB-231,0.053 µM
same,GI50,LOX IMVI,0.018 µM
same,GI50,CCRF-CEM,0.007 µM
same,GI50,HOP-92,0.022 µM
same,GI50,SR,0.024 µM
same,GI50,ACHN,0.005 µM
same,GI50,OVCAR-8,0.015 µM
same,GI50,T47D,0.024 µM
same,GI50,UO-31,0.009 µM
same,GI50,SW-620,0.017 µM
same,GI50,MDA-MB-468,0.044 µM
same,GI50,A498,0.012 µM
same,GI50,TK-10,0.008 µM
same,GI50,SNB-75,0.023 µM
same,GI50,SK-MEL-28,0.037 µM
same,GI50,HCT-15,0.017 µM
C[C@]12CC[C@@H](O)C=C1CC[C@@H]1[C@@H]2[C@@H](O)C[C@]2(C)[C@@H](c3ccc(=O)oc3)CC[C@]12O,GI50,KM12,5 µM
same,GI50,OVCAR-5,2.84 µM
same,GI50,MCF7,3.53 µM
same,GI50,UACC-257,3.45 µM
same,GI50,SF-539,1.49 µM
same,GI50,M14,3.38 µM
same,GI50,NCI/ADR-RES,2.23 µM
same,GI50,NCI-H322M,2.88 µM
same,GI50,DU-145,0.76 µM
same,GI50,NCI-H23,2.23 µM
same,GI50,IGROV-1,3.69 µM
same,GI50,Hs-578T,0.831 µM
same,GI50,RXF 393,0.412 µM
same,GI50,HL-60,0.273 µM
same,GI50,K562,0.644 µM
same,GI50,NCI-H522,0.639 µM
same,GI50,OVCAR-3,0.739 µM
same,GI50,SF-268,0.656 µM
same,GI50,NCI-H460,0.573 µM
same,GI50,SK-MEL-2,3.06 µM
same,GI50,BT-549,0.658 µM
same,GI50,SN12C,1.07 µM
same,GI50,SF-295,1.75 µM
same,GI50,MDA-MB-435,3.35 µM
same,GI50,SK-MEL-5,3.03 µM
same,GI50,SNB-19,4.97 µM
same,GI50,HCC 2998,7.85 µM
same,GI50,MOLT-4,0.303 µM
same,GI50,UACC-62,3.31 µM
same,GI50,CAKI-1,2.47 µM
same,GI50,RPMI-8226,2.54 µM
same,GI50,786-0,0.998 µM
same,GI50,SK-OV-3,4.24 µM
same,GI50,A549,0.649 µM
same,GI50,PC-3,1.88 µM
same,GI50,HCT-116,0.532 µM
same,GI50,HOP-62,1.55 µM
same,GI50,NCI-H226,7.56 µM
same,GI50,Malme-3M,4.35 µM
same,GI50,COLO 205,6.05 µM
same,GI50,MDA-MB-231,8.5 µM
same,GI50,LOX IMVI,3.69 µM
same,GI50,CCRF-CEM,0.502 µM
same,GI50,HOP-92,2.1 µM
same,GI50,SR,0.189 µM
same,GI50,ACHN,0.475 µM
same,GI50,OVCAR-8,2.11 µM
same,GI50,T47D,4.71 µM
same,GI50,UO-31,2.15 µM
same,GI50,SW-620,1.69 µM
same,GI50,MDA-MB-468,10.2 µM
same,GI50,A498,1.77 µM
same,GI50,TK-10,2.98 µM
same,GI50,SNB-75,2.17 µM
same,GI50,SK-MEL-28,3.47 µM
same,GI50,HCT-15,4.11 µM
